Experimental data reported in publication PMC6001238, “Iterative Chemical Engineering of Vancomycin Leads to Novel Vancomycin Analogs With a High in Vitro Therapeutic Index” (Frontiers in Microbiology, 2018).
≈ marks a conversion by molar mass, not a printed value.

Assays:
[1] = tested on: MRSA KS2; assay: MIC, broth microdilution, MRSA KS2; assay type: cell-based, Staphylococcus aureus; details: for MIC-fold improvement vs. vancomycin: MRSA KS2, ratio of MIC of vancomycin and MIC of analogue; for MIC: Staphylococcus aureus MRSA KS2, read-out: MIC
How it was run: (§1)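 CLSI broth microdilution; water and uninoculated-broth controls; one arm supplemented with vancomycin, final 10 μM, given with analogue or control antibiotic.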

[2] = tested on: MRSA KS1; assay: MIC, broth microdilution, MRSA KS1; assay type: cell-based, Staphylococcus aureus; details: for MIC-fold improvement vs. vancomycin: MRSA KS1, ratio of MIC of vancomycin and MIC of analogue; for MIC: Staphylococcus aureus MRSA KS1, read-out: MIC
How it was run: as §1

[3] = tested on: S. aureus VISA/HIP5827; assay: MIC, broth microdilution, vancomycin-intermediate S. aureus VISA HIP5827; assay type: cell-based, Staphylococcus aureus; details: for MIC: Staphylococcus aureus VISA/HIP5827, read-out: MIC; for MIC-fold improvement vs. vancomycin: VISA/HIP5827, ratio of MIC of vancomycin and MIC of analogue
How it was run: as §1

[4] = tested on: MRSA KS6; assay: MIC, broth microdilution, MRSA KS6; assay type: cell-based, Staphylococcus aureus; details: for MIC-fold improvement vs. vancomycin: MRSA KS6, ratio of MIC of vancomycin and MIC of analogue; for MIC: Staphylococcus aureus MRSA KS6, read-out: MIC
How it was run: as §1

[5] = tested on: MRSA KS89; assay: MIC, broth microdilution, MRSA KS89; assay type: cell-based, Staphylococcus aureus; details: for MIC-fold improvement vs. vancomycin: MRSA KS8, ratio of MIC of vancomycin and MIC of analogue; for MIC: Staphylococcus aureus MRSA KS8, read-out: MIC
How it was run: as §1

[6] = tested on: S. aureus VSSA (ATCC 6538); assay: MIC, broth microdilution, vancomycin-sensitive S. aureus (VSSA/MSSA, ATCC 6538); assay type: cell-based, Staphylococcus aureus; details: for MIC: Staphylococcus aureus VSSA, read-out: MIC; for MIC-fold improvement vs. vancomycin: VSSA, ratio of MIC of vancomycin and MIC of analogue
How it was run: as §1

[7] = tested on: human cervix carcinoma (HeLa) cells; assay: Cytostatic activity, HeLa cell proliferation; assay type: cell-based; details: mean ± SD of three experiments; highest concentration tested 250 µM; 4 days; read-out: Toxicity (IC50) HeLa
How it was run: (§2)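 Test compounds, serially diluted, received an equal volume of cell suspension at 300,000–500,000 cells/mL. After 37°C incubation (2 days for L1210, 3 for CEM, 4 for HeLa), cells were enumerated by Coulter counting and 50%-inhibitory concentrations calculated per cell type.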

[8] = tested on: E. faecalis VRE 53; assay: MIC, broth microdilution, vancomycin-resistant E. faecalis VRE 53 (VanA); assay type: cell-based, Enterococcus faecalis; details: for MIC: Enterococcus faecalis VRE 53 (vancomycin-resistant), read-out: MIC; for MIC-fold improvement vs. vancomycin: VRE 53, ratio of MIC of vancomycin and MIC of analogue
How it was run: as §1

[9] = tested on: L1210, CEM and HeLa cell lines; assay: Cytostatic activity, average or summary over L1210, CEM and HeLa; assay type: cell-based; details: average of L1210, CEM and HeLa; read-out: Toxicity (IC50) Average
How it was run: as §2

[10] = tested on: E. faecalis VRE 6; assay: MIC, broth microdilution, vancomycin-resistant E. faecalis VRE 6 (VanA); assay type: cell-based, Enterococcus faecalis; details: for MIC: Enterococcus faecalis VRE 6 (vancomycin-resistant), read-out: MIC; for MIC-fold improvement vs. vancomycin: VRE 6, ratio of MIC of vancomycin and MIC of analogue
How it was run: as §1

[11] = tested on: S. aureus VRSA; assay: MIC, broth microdilution, vancomycin-resistant S. aureus (VRSA); assay type: cell-based, Staphylococcus aureus; details: for MIC: Staphylococcus aureus VRSA, read-out: MIC; for MIC-fold improvement vs. vancomycin: VRSA, ratio of MIC of vancomycin and MIC of analogue
How it was run: as §1

[12] = tested on: human T-lymphocyte (CEM) cells; assay: Cytostatic activity, CEM cell proliferation; assay type: cell-based; details: mean ± SD of three experiments; highest concentration tested 250 µM; 3 days; read-out: Toxicity (IC50) CEM
How it was run: as §2

[13] = tested on: Murine leukemia (L1210) cells; assay: Cytostatic activity, L1210 cell proliferation; assay type: cell-based; details: mean ± SD of three experiments; highest concentration tested 250 µM; 2 days; read-out: Toxicity (IC50) L1210
How it was run: as §2

[14] = tested on: E. faecalis VRE 37; assay: MIC, broth microdilution, vancomycin-resistant E. faecalis VRE 37 (VanA); assay type: cell-based, Enterococcus faecalis; details: for MIC: Enterococcus faecalis VRE 37 (vancomycin-resistant), read-out: MIC
How it was run: as §1

[15] = tested on: E. faecalis VRE 29; assay: MIC, broth microdilution, vancomycin-resistant E. faecalis VRE 29 (VanA); assay type: cell-based, Enterococcus faecalis; details: for MIC: Enterococcus faecalis VRE 29 (vancomycin-resistant), read-out: MIC; for MIC-fold improvement vs. vancomycin: VRE 29, ratio of MIC of vancomycin and MIC of analogue
How it was run: as §1

[16] = tested on: E. faecalis VSE 1; assay: MIC, broth microdilution, vancomycin-sensitive E. faecalis (VSE 1); assay type: cell-based, Enterococcus faecalis; details: for MIC: Enterococcus faecalis VSE 1 (vancomycin-sensitive), read-out: MIC; for MIC-fold improvement vs. vancomycin: VSE 1, ratio of MIC of vancomycin and MIC of analogue
How it was run: as §1

| SMILES | MIC-fold improvement vs. vancomycin [1] | MIC [1] | MIC-fold improvement vs. vancomycin [2] | MIC [2] | MIC [3] | MIC-fold improvement vs. vancomycin [3] | MIC-fold improvement vs. vancomycin [4] | MIC [4] | MIC-fold improvement vs. vancomycin [5] | MIC [5] | MIC [6] | MIC-fold improvement vs. vancomycin [6] | IC50 [7] | MIC [8] | MIC-fold improvement vs. vancomycin [8] | IC50 [9] | MIC [10] | MIC-fold improvement vs. vancomycin [10] | MIC [11] | MIC-fold improvement vs. vancomycin [11] | further results |
| --- | --- | --- | --- | --- | --- | --- | --- | --- | --- | --- | --- | --- | --- | --- | --- | --- | --- | --- | --- | --- | --- |
| CN[C@H](CC(C)C)C(=O)N[C@H]1C(=O)N[C@@H](CC(N)=O)C(=O)N[C@H]2C(=O)N[C@H]3C(=O)N[C@H](C(=O)N[C@H](C(=O)NCCNC(=O)/C=C/c4ccc(NS(=O)(=O)c5ccccc5)cc4)c4cc(O)cc(O)c4-c4cc3ccc4O)[C@H](O)c3ccc(c(Cl)c3)Oc3cc2cc(c3O[C@@H]2O[C@H](CO)[C@@H](O)[C@H](O)[C@H]2O[C@H]2C[C@](C)(N)[C@H](O)[C@H](C)O2)Oc2ccc(cc2Cl)[C@H]1O [Vanc-54] | 2 | 0.39 µM (≈ 0.693 µg/mL) | 2 | 0.39 µM (≈ 0.693 µg/mL) | 0.78 µM (≈ 1.39 µg/mL) | 8 | 2 | 0.39 µM (≈ 0.693 µg/mL) | 2 | 0.39 µM (≈ 0.693 µg/mL) | 0.39 µM (≈ 0.693 µg/mL) | 2 | 54 ± 29 µM | 25 µM (≈ 44.4 µg/mL) | 16 | 185 µM | 12.5 µM (≈ 22.2 µg/mL) | 16 | 0.39 µM (≈ 0.693 µg/mL) | 256 | IC50 [12]: ≥ 250 µM; IC50 [13]: > 250 µM; MIC [14]: 25 µM (≈ 44.4 µg/mL); MIC-fold improvement vs. vancomycin ([14]; VRE 37, ratio of MIC of vancomycin and MIC of analogue): 16; MIC [15]: 25 µM (≈ 44.4 µg/mL); MIC-fold improvement vs. vancomycin [15]: 16; MIC [16]: 0.78 µM (≈ 1.39 µg/mL); MIC-fold improvement vs. vancomycin [16]: 2 |
| CN[C@H](CC(C)C)C(=O)N[C@H]1C(=O)N[C@@H](CC(N)=O)C(=O)N[C@H]2C(=O)N[C@H]3C(=O)N[C@H](C(=O)N[C@H](C(=O)NCCNC(=O)/C=C/c4ccc(NS(=O)(=O)c5ccc(C)cc5)cc4)c4cc(O)cc(O)c4-c4cc3ccc4O)[C@H](O)c3ccc(c(Cl)c3)Oc3cc2cc(c3O[C@@H]2O[C@H](CO)[C@@H](O)[C@H](O)[C@H]2O[C@H]2C[C@](C)(N)[C@H](O)[C@H](C)O2)Oc2ccc(cc2Cl)[C@H]1O [Vanc-55] | 4 | 0.20 µM (≈ 0.358 µg/mL) | 4 | 0.20 µM (≈ 0.358 µg/mL) | 0.78 µM (≈ 1.4 µg/mL) | 8 | 2 | 0.39 µM (≈ 0.698 µg/mL) | 2 | 0.39 µM (≈ 0.698 µg/mL) | 0.78 µM (≈ 1.4 µg/mL) | 1 | 103 ± 10 µM | 12.5 µM (≈ 22.4 µg/mL) | 32 | 201 µM | 6.25 µM (≈ 11.2 µg/mL) | 32 | 0.39 µM (≈ 0.698 µg/mL) | 256 | IC50 [12]: ≥ 250 µM; IC50 [13]: > 250 µM; MIC [14]: 12.5 µM (≈ 22.4 µg/mL); MIC [15]: 12.5 µM (≈ 22.4 µg/mL); MIC-fold improvement vs. vancomycin [15]: 32; MIC [16]: 0.39 µM (≈ 0.698 µg/mL); MIC-fold improvement vs. vancomycin [16]: 4 |
